Structures are written as SMILES.

In the test the target is human GlyT1c transporter (Homo sapiens (Human), UniProt P48067). The test can be described thus: Radioligand binding assays using recombinant CHO cell membranes expressing human GlyT1. The settings on record: radioligand binding, human GlyT1c transporter-expressing CHO cell membranes.
Sequence of human GlyT1c transporter (P48067 whole entry): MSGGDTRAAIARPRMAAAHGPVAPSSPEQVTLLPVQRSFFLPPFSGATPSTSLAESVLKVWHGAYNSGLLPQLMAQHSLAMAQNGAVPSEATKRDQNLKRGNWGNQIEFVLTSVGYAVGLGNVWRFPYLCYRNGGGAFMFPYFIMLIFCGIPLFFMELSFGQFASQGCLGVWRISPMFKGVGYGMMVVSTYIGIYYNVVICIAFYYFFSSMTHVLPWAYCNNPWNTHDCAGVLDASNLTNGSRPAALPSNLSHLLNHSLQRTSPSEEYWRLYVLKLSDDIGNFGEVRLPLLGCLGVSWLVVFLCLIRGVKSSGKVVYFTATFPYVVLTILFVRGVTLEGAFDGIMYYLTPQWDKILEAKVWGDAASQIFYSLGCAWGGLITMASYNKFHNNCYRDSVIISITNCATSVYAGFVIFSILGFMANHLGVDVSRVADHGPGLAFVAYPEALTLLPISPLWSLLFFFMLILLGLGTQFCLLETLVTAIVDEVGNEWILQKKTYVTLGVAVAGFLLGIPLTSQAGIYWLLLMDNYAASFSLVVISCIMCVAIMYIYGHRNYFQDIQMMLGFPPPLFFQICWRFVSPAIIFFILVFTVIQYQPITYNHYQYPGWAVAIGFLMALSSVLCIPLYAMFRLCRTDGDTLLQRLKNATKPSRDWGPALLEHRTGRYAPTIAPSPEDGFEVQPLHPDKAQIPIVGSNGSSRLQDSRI
One may read the Ki as the equilibrium dissociation constant of an inhibitor or competing ligand from its target. In the case of `Cc1ncc(S(=O)(=O)N2C[C@H](Nc3ccc(F)c(F)c3)[C@@H](c3ccc(F)cc3)C2)n1C` [Example 757, (3R,4S)—N-(3,4-difluorophenyl)-1-[(1,2-dimethyl-1H-imidazol-5-yl)sulfonyl]-4-(4-fluorophenyl)pyrrolidin-3-amine], the Ki is at most 10000 nM.

For the compound `Cn1cnc(S(=O)(=O)N2C[C@H](Nc3cc(Cl)ccn3)[C@@H](c3ccc(F)cc3)C2)c1` [Example 759, 4-chloro-N-{(3R,4S)-4-(4-fluorophenyl)-1-[(1-methyl-1H-imidazol-4-yl)sulfonyl]pyrrolidin-3-yl}pyridin-2-amine], the Ki was at most 10 nM.

As for `Cn1cnc(S(=O)(=O)N2C[C@H](Nc3cccc(C4CCNCC4)c3)[C@@H](c3ccccc3)C2)c1` [Example 777, (3R,4S)-1-[(1-methyl-1H-imidazol-4-yl)sulfonyl]-4-phenyl-N-[3-(piperidin-4-yl)phenyl]pyrrolidin-3-amine], the Ki was at least 10000 nM. Consider `Cn1cnc(S(=O)(=O)N2C[C@H](Nc3cc(OCC4CNC4)ncn3)[C@@H](c3ccc(F)cc3)C2)c1` [Example 778, 6-(azetidin-3-ylmethoxy)-N-{(3R,4S)-4-(4-fluorophenyl)-1-[(1-methyl-1H-imidazol-4-yl)sulfonyl]pyrrolidin-3-yl}pyrimidin-4-amine], for which the Ki was at least 10000 nM. With `Cn1cnc(S(=O)(=O)N2C[C@H](Nc3cc(OCC(F)(F)F)c(Cl)cn3)[C@@H](c3ccccc3)C2)c1` [Example 808, 5-chloro-N-{(3R,4S)-1-[(1-methyl-1H-imidazol-4-yl)sulfonyl]-4-phenylpyrrolidin-3-yl}-4-(2,2,2-trifluoroethoxy)pyridin-2-amine] the figure was at most 10 nM; with `Cn1cnc(S(=O)(=O)N2CC(NCc3ccc(C(F)(F)F)cc3Cl)C([C@@H]3CCCO3)C2)c1` (stereo partly drawn) [Example 823, N-[2-chloro-4-(trifluoromethyl)benzyl]-1-[(1-methyl-1H-imidazol-4-yl)sulfonyl]-4-[(2S)tetrahydrofuran-2-yl]pyrrolidin-3-amine], at most 1000 nM; with `Cn1cc(S(=O)(=O)N2C[C@H](Nc3ccc(F)c(OC(F)(F)F)c3)[C@@H](c3ccc(F)cc3)C2)nn1` [Example 838, (3R,4S)-4-(4-fluorophenyl)-N-[4-fluoro-3-(trifluoromethoxy)phenyl]-1-[(1-methyl-1H-1,2,3-triazol-4-yl)sulfonyl]pyrrolidin-3-amine], at most 10 nM.

In the case of `Cn1cc(S(=O)(=O)N2C[C@H](Nc3cccc(Cl)c3)[C@@H](c3ccc(F)cc3)C2)nn1` [Example 841, (3R,4S)—N-(3-chlorophenyl)-4-(4-fluorophenyl)-1-[(1-methyl-1H-1,2,3-triazol-4-yl)sulfonyl]pyrrolidin-3-amine], the Ki was at most 10 nM.

The record behind these values is patent US9656955B2, “Pyrrolidine derivatives, pharmaceutical compositions containing them, and their use in therapy” (AbbVie Deutschland GmbH & Co. KG, priority 2013, dated 2017).
